The text below walks through data of patent publication US4806532A, “Inhibition of epithelial phosphate transport” (Mayo Foundation for Medical Education and Research, priority 1985, dated 1989).

The target in assay [1] is T1, Na-Pi cotransporter (Mus musculus, UniProt Q60825).
T1 construct: were prepared from renal cortices of mongrel dogs, albino mice and New Zealand albino rabbits; from tissue; host or cells: albino mouse renal cortex, brush border membrane vesicles
T1 sequence (Q60825 1-637): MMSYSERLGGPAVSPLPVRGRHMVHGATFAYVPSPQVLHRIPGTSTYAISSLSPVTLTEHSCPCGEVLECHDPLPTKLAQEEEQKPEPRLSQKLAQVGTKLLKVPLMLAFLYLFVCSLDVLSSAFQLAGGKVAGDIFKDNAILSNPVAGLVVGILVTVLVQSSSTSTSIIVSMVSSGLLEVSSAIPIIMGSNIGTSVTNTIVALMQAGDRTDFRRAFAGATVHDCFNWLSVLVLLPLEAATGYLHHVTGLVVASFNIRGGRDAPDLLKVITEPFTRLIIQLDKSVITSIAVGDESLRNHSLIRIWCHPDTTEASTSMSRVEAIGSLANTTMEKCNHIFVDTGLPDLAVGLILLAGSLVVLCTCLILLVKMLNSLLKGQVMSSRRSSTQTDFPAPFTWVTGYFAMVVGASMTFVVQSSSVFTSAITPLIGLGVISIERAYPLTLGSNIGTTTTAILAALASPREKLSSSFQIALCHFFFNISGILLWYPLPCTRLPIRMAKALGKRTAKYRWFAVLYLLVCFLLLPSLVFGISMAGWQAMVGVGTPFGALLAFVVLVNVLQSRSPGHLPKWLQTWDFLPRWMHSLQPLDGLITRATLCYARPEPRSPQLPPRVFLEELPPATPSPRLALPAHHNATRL
The experiment in a line: Na+-gradient-dependent 32Pi uptake by renal BBMV, mouse. The assay is classed as biochemical. How it is done: (§1) The brush border membrane vesicles (BBMV) were prepared from renal cortical tissue of adult male Sprague-Dawley rats of an average body weight of about 220 grams. Rats were fed ad libitum standard rat chow containing 0.7% Pi and had free access to distilled water. Rats were sacrificed under anesthesia and dissected renal cortical tissue was used for preparation of BBMV fraction by the divalent cation-precipitation procedure, employed and described in detail in J. Clin. Invest., 67, 1347 (1981) and J. Biol. Chem., 258, 5695 (1983), with the following modifications: (a) MgCl2 instead of CaCl2 was added to crude homogenate (final concentration 10 mM MgCl2) to precipitate membranes other than BBMV; (b) in the final step, BBMV were washed and equilibrated in a medium of pH=7.5, instead of pH=8.5. The enrichment and specific activities of typical BBM enzymes alkaline phosphatase (APases), γ-glutyamyl transferase (γ-GTT), leucineaminopeptidase (LAP) and maltase with use of these modifications were similar as in BBMV fractions prepared in our previous studies. As a final step in the preparative procedure, the BBMV fraction was washed and resuspended in a medium containing 300 mM mannitol and 5 mM Tris-HEPES adjusted to pH=t.5, referred to as "MTH-medium," unless specified otherwise. The analogous BBMV fractions, using the same procedure, were prepared from renal cortices of mongrel dogs, albino mice and New Zealand albino rabbits.
(§2) The BBMV uptake of ^32 Pi, D-[^3 H]-glucose, L-[^3 H]-proline and ^22 Na^+ was measured by means of a rapid filtration technique, as described in J. Clin. Invest., 67, 1347 (1981) and Am. J. Physiol., 246, F133-F139 (1984). Also, unless specified otherwise, the medium for the solute uptake assay consisted of following compounds (in final concentrations): 100 mM mannitol, 100 mM NaCl (or 100 mM KC1) and 5 mM Tris-HEPES (pH=7.5) and eitehr 0.1 mM K2 H^32 PO4, or 0.05 mM D-[^3 H]-glucose, or 0.025 mM L-[^3 H]-proline. IN the ^22 Na^+ uptake studies, the assay medium contained 100 mM ^22 NaCl (^22 NaCl about […] per tube), 100 mM mannitol and 5 mM Tris-HEPES (pH 7.5).
(§3) In most experiments, the Na^+ -gradient-dependent ^32 Pi uptake in the concentrative "uphill" phase was measured at 20 seconds period. Since Na^+ -independent Pi uptake in this time period was quantitatively minor component (<5%) of the Na^+ -gradient-dependent Pi uptake, it was not routinely subtracted.

For assay [2], the target named is T2, Na-Pi cotransporter (Oryctolagus cuniculus, UniProt Q28620).
T2 construct: were prepared from renal cortices of mongrel dogs, albino mice and New Zealand albino rabbits; from tissue; host or cells: New Zealand albino rabbit renal cortex, brush border membrane vesicles
T2 sequence (Q28620 1-642): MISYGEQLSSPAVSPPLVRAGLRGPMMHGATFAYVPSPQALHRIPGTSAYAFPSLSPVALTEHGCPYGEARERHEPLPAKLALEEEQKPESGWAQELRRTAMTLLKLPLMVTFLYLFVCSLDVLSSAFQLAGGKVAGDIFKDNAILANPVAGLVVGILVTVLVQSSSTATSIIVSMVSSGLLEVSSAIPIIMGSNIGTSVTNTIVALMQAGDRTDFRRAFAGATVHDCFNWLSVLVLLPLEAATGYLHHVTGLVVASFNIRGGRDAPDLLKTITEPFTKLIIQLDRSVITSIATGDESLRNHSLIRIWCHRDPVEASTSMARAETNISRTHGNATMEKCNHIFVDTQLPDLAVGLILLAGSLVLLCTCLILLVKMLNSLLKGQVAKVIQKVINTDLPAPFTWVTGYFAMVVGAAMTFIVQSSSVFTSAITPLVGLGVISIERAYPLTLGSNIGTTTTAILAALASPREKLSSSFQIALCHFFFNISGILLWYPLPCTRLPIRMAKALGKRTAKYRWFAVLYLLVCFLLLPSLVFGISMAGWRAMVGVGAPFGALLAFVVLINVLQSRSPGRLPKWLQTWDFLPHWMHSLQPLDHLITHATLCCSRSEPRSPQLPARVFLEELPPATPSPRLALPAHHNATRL
Kind of assay: Na+-gradient-dependent 32Pi uptake by renal BBMV, rabbit. The assay is classed as biochemical. The procedure: as §1, §2, §3

Where [3] appears, read: 20 s, 1 mM TPFA, read-out: percent decrease of 20 sec 32Pi-uptake relative to control value.
Where [4] appears, read: 20 s, 5 mM TPFA, read-out: percent decrease of 20 sec 32Pi-uptake relative to control value.

Counter-ions that a name gives are not always drawn.

Regarding `O=C(O)P(=O)(O)O` [TPFA, Phosphonoformic acid, trisodium salt hexahydrate], the “32Pi-uptake 120 min” value in assay [1] (1 mM TPFA, control 368 ± 7) was determined as 390 ± 74 pmoles Pi/mg protein/time; in assay [1] (5 mM TPFA), 404 ± 12 pmoles Pi/mg protein/time; in assay [2] (1 mM TPFA, control 551 ± 15), 532 ± 19 pmoles Pi/mg protein/time; in assay [2] (5 mM TPFA) it was 549 ± 11 pmoles Pi/mg protein/time. Besides, the “32Pi-uptake 20 sec” value is recorded as 299 ± 8 pmoles Pi/mg protein/time in assay [1] (1 mM TPFA, control 824 ± 9); 97 ± 7 pmoles Pi/mg protein/time in assay [1] (5 mM TPFA); 279 ± 4 pmoles Pi/mg protein/time in assay [2] (1 mM TPFA, control 768 ± 7); 107 ± 5 pmoles Pi/mg protein/time in assay [2] (5 mM TPFA). Also, the inhibition at 1000 µM in assay [1] (setting [3]) and in assay [2] (setting [3]) was 63.7% each time. In addition, the inhibition at 5000 µM is 88.2% in assay [1] (setting [4]) and 86.1% in assay [2] (setting [4]).
